{
  "source": "patent US20240100170A1",
  "about": "“CYCLIC-AMP RESPONSE ELEMENT BINDING PROTEIN (CBP) AND/OR ADENOVIRAL E1A BINDING PROTEIN OF 300 KDA (P300) DEGRADATION COMPOUNDS AND METHODS OF USE” (CULLGEN (SHANGHAI), INC., priority 2020, published 2024)",
  "key": {"[1]": {"test_system": "LNCaP prostate cancer cell", "assay": "LNCaP cell viability (CellTiter-Glo)", "assay_type": "cell-based", "settings": "Homo sapiens, 72 h; LNCaP cell viability, 3 days, CellTiter-Glo; Table 4", "summary_of_the_method": "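LNCaP cells (5000/well, RPMI 1640 + 10% FBS, 37 °C) treated with compounds in 12-point 3-fold serial dilution for three days. Viability read by CellTiter-Glo luminescence, normalized to untreated cells; IC50 from least-squares nonlinear regression.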"}, "[2]": {"target": "P300 (Homo sapiens, UniProt Q09472)", "sequence (Q09472 whole entry)": "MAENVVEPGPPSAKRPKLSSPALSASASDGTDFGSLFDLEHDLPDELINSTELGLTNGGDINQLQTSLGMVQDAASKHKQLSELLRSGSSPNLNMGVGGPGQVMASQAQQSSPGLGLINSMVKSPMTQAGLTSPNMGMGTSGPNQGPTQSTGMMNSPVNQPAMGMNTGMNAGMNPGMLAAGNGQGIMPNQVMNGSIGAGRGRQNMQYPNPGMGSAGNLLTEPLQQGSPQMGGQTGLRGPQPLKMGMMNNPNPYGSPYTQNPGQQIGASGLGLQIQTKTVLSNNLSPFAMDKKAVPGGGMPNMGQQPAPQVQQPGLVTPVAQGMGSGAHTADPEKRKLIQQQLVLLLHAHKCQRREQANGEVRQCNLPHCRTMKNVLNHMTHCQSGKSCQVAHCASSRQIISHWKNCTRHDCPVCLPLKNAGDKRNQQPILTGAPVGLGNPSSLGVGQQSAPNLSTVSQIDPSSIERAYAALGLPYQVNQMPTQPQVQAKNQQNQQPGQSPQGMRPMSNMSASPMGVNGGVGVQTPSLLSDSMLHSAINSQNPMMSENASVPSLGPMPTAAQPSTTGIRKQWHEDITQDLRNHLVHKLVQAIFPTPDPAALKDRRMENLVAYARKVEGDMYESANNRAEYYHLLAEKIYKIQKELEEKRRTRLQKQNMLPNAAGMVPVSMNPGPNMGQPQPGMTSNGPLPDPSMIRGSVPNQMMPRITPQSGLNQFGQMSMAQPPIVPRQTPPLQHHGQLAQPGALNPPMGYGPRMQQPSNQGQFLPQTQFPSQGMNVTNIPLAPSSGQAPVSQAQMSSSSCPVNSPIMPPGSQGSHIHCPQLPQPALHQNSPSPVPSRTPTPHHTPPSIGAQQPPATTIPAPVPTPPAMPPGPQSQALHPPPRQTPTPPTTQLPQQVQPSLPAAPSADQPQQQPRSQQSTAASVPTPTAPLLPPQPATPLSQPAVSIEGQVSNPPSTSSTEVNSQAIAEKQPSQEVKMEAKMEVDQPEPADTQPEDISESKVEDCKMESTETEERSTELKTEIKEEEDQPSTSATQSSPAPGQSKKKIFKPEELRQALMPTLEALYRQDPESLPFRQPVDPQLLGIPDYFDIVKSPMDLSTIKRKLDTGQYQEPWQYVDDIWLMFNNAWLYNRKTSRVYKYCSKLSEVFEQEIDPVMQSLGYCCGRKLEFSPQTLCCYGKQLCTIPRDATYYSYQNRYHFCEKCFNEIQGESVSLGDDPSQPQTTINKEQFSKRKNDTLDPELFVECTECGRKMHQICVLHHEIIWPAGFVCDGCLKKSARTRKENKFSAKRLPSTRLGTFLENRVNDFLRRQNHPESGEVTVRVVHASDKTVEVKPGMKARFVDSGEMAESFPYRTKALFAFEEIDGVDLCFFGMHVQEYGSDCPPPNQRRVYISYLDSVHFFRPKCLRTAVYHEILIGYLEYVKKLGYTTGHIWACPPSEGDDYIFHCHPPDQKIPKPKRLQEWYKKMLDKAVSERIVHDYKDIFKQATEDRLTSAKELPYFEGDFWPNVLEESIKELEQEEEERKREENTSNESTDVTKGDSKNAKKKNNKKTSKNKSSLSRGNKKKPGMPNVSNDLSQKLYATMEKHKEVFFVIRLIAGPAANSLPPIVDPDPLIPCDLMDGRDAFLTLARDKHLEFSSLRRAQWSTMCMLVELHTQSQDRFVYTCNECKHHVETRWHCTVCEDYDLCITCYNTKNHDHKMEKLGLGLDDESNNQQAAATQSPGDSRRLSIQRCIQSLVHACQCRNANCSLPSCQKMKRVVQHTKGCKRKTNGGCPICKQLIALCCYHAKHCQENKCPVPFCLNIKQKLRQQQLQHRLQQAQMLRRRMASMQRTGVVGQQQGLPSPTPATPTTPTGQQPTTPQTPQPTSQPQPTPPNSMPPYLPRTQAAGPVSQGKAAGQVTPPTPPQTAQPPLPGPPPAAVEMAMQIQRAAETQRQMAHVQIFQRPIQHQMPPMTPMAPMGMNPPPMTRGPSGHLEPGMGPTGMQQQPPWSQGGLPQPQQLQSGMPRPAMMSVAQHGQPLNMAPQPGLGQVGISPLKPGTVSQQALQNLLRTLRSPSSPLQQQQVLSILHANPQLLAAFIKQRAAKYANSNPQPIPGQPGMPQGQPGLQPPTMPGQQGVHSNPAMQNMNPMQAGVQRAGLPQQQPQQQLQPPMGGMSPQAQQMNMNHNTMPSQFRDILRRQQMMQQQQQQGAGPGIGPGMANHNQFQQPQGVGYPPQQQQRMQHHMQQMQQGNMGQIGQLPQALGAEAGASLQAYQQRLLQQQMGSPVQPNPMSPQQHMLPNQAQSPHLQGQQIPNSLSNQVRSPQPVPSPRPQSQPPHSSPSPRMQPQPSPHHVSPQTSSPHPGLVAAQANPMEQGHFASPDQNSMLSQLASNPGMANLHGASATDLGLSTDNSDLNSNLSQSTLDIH", "assay": "percentage of inhibition (degradation) of p300 at 10 nM, Tables 2-4", "assay_type": "cell-based", "parameters": "LNCaP or 22RV1 cells that express CBP/P300 proteins were treated with GNE-781 or the bivalent compounds; endogenous in cells; host or cells: LNCaP or 22RV1 (not given)", "settings": "read-out: Degradation (10 nM)", "summary_of_the_method": "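Degradation was measured at 10 nM. Cells or tissue were lysed in RIPA with protease and phosphatase inhibitors for 30 min at 4 °C and cleared, and protein was quantified by BCA. Lysates were resolved by SDS-PAGE, detected by chemiluminescent immunoblot, and bands were quantified by densitometry.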"}},
  "note": "Read-outs that look alike come from different tables or passages of the source.",
  "data": [
    {"smiles": "CC(=O)N1CCc2c(c(N3CCCc4cc(-c5cnn(C)c5)c(C(F)F)cc43)nn2C2CCN(CCC3CCN(CCCc4cccc5c4C(=O)N(C4CCC(=O)NC4=O)C5=O)CC3)CC2)C1", "note": "(stereo not drawn) [P-246, 4-(3-(4-(2-(4-(5-acetyl-3-(7-(difluoromethyl)-6-(1-methyl-1H-pyrazol-4-yl)-3,4-dihydroquinolin-1(2H)-yl)-4,5,6,7-tetrahydro-1H-pyrazolo[4,3-c]pyridin-1-yl)piperidin-1-yl)ethyl)piperidin-1-yl)propyl)-2-(2,6-dioxopiperidin-3-yl)isoindoline-1,3-dione]", "values": [
      {"measurement": "IC50", "setting": "[1]", "value": 298, "unit": "nM"},
      {"measurement": "inhibition at 0.01 µM", "setting": "[2]; p300, 10 nM, Table 4", "value": "20 to 50", "unit": "%"}
    ]},
    {"smiles": "CC(=O)N1CCc2c(c(N3CCCc4cc(-c5cnn(C)c5)c(C(F)F)cc43)nn2C2CCN(CCCN3CCN(c4cccc5c4C(=O)N(C4CCC(=O)NC4=O)C5=O)CC3)CC2)C1", "note": "(stereo not drawn) [P-247, 4-(4-(3-(4-(5-Acetyl-3-(7-(difluoromethyl)-6-(1-methyl-1H-pyrazol-4-yl)-3,4-dihydroquinolin-1(2H)-yl)-4,5,6,7-tetrahydro-1H-pyrazolo[4,3-c]pyridin-1-yl)piperidin-1-yl)propyl)piperazin-1-yl)-2-(2,6-dioxopiperidin-3-yl)isoindoline-1,3-dione]", "values": [
      {"measurement": "IC50", "setting": "[1]", "value": "> 500", "unit": "nM"},
      {"measurement": "inhibition at 0.01 µM", "setting": "[2]; p300, 10 nM, Table 4", "value": "< 20", "unit": "%"}
    ]},
    {"smiles": "CC(=O)N1CCc2c(c(N3CCCc4cc(-c5cnn(C)c5)c(C(F)F)cc43)nn2C2CCN(CCCC3CCN(c4cccc5c4C(=O)N(C4CCC(=O)NC4=O)C5=O)CC3)CC2)C1", "note": "(stereo not drawn) [P-249, 4-(4-(3-(4-(5-acetyl-3-(7-(difluoromethyl)-6-(1-methyl-1H-pyrazol-4-yl)-3,4-dihydroquinolin-1(2H)-yl)-4,5,6,7-tetrahydro-1H-pyrazolo[4,3-c]pyridin-1-yl)piperidin-1-yl)propyl)piperidin-1-yl)-2-(2,6-dioxopiperidin-3-yl)isoindoline-1,3-dione]", "values": [
      {"measurement": "IC50", "setting": "[1]", "value": 0.1, "unit": "nM"},
      {"measurement": "inhibition at 0.01 µM", "setting": "[2]; p300, 10 nM, Table 4", "value": "> 80", "unit": "%"}
    ]},
    {"smiles": "CC(=O)N1CCc2c(c(N3CCCc4cc(-c5cnn(C)c5)c(C(F)F)cc43)nn2C2CCN(CCCN3CCC(C#Cc4cccc5c4n(C)c(=O)n5C4CCC(=O)NC4=O)CC3)CC2)C1", "note": "(stereo not drawn) [P-250, 3-(4-((1-(3-(4-(5-acetyl-3-(7-(difluoromethyl)-6-(1-methyl-1H-pyrazol-4-yl)-3,4-dihydroquinolin-1(2H)-yl)-4,5,6,7-tetrahydro-1H-pyrazolo[4,3-c]pyridin-1-yl)piperidin-1-yl)propyl)piperidin-4-yl)ethynyl)-3-methyl-2-oxo-2,3-dihydro-1H-benzo[d]imidazol-1-yl)piperidine-2,6-dione]", "values": [
      {"measurement": "IC50", "setting": "[1]", "value": 0.3, "unit": "nM"},
      {"measurement": "inhibition at 0.01 µM", "setting": "[2]; p300, 10 nM, Table 4", "value": "> 80", "unit": "%"}
    ]},
    {"smiles": "CC(=O)N1CCc2c(c(N3CCCc4cc(-c5cnn(C)c5)c(C(F)F)cc43)nn2C2CCN(CCN3CCC(C#Cc4cccc5c4n(C)c(=O)n5C4CCC(=O)NC4=O)CC3)CC2)C1", "note": "(stereo not drawn) [P-251, 3-(4-((1-(2-(4-(5-acetyl-3-(7-(difluoromethyl)-6-(1-methyl-1H-pyrazol-4-yl)-3,4-dihydroquinolin-1(2H)-yl)-4,5,6,7-tetrahydro-1H-pyrazolo[4,3-c]pyridin-1-yl)piperidin-1-yl)ethyl)piperidin-4-yl)ethynyl)-3-methyl-2-oxo-2,3-dihydro-1H-benzo[d]imidazol-1-yl)piperidine-2,6-dione]", "values": [
      {"measurement": "IC50", "setting": "[1]", "value": 0.1, "unit": "nM"},
      {"measurement": "inhibition at 0.01 µM", "setting": "[2]", "value": "> 80", "unit": "%"}
    ]},
    {"smiles": "CC(=O)N1CCc2c(c(N3CCCc4cc(-c5cnn(C)c5)c(C(F)F)cc43)nn2C2CCN(CCN3CCC(CCc4cccc5c4n(C)c(=O)n5C4CCC(=O)NC4=O)CC3)CC2)C1", "note": "(stereo not drawn) [P-252, 3-(4-(2-(1-(2-(4-(5-acetyl-3-(7-(difluoromethyl)-6-(1-methyl-1H-pyrazol-4-yl)-3,4-dihydroquinolin-1(2H)-yl)-4,5,6,7-tetrahydro-1H-pyrazolo[4,3-c]pyridin-1-yl)piperidin-1-yl)ethyl)piperidin-4-yl)ethyl)-3-methyl-2-oxo-2,3-dihydro-1H-benzo[d]imidazol-1-yl)piperidine-2,6-dione]", "values": [
      {"measurement": "IC50", "setting": "[1]", "value": 0.1, "unit": "nM"},
      {"measurement": "inhibition at 0.01 µM", "setting": "[2]", "value": "> 80", "unit": "%"}
    ]}
  ]
}
